Reference: article PMC10308197 (Cell Insight, 2023)

Legend:
[1] = target: T1, METTL9 (Homo sapiens, UniProt Q9H1A3); type: biochemical; settings: mono-methylated product monitored, N = 3
Target sequence in this assay (Q9H1A3 19-318): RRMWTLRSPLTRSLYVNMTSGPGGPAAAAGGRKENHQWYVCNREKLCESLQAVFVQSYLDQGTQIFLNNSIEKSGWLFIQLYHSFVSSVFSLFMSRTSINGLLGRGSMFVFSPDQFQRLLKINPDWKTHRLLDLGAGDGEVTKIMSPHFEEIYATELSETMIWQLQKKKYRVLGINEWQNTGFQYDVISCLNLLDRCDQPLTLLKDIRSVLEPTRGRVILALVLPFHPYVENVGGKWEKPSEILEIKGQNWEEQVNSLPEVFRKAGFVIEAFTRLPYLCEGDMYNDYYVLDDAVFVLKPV

[2] = target: T1, METTL9; test: Isothermal titration calorimetry; type: binding
Target sequence in this assay (Q9H1A3 whole entry): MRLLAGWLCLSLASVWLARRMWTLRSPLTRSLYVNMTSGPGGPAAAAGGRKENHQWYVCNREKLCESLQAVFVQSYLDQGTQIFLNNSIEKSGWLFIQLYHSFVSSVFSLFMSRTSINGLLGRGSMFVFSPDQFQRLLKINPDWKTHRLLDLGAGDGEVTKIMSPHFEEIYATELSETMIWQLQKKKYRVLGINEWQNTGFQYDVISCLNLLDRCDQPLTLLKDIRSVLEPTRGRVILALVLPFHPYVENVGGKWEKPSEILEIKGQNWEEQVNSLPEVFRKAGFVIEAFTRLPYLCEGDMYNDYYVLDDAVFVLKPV

[3] = system: METTL9 mutants; test: ITC of mutant METTL9 titrated with SAH; type: binding, human; settings: METTL9 T173A, T115A and N118A (range over the three mutants)
[4] = target: T115A, V241G, and C297A; test: ITC
[5] = target: D213S or D213N; test: ITC
[6] = target: METTL9 D213N (human, UniProt Q9H1A3 19-318, D213N); test: ITC
[7] = target: METTL9 D213S (human, UniProt Q9H1A3 19-318, D213S); test: ITC
[8] = target: METTL9 T115A (human, UniProt Q9H1A3 19-318, T115A); test: ITC
METTL9 T115A, sequence (Q9H1A3 19-318 T115A): as the sequence (Q9H1A3 19-318) above, with T97A counted along it

METTL9 D213S, sequence (Q9H1A3 19-318 D213S): as the sequence (Q9H1A3 19-318) above, with D195S counted along it
METTL9 D213N, sequence (Q9H1A3 19-318 D213N): as the sequence (Q9H1A3 19-318) above, with D195N counted along it

## O=C(O)CN(CCN(CC(=O)O)CC(=O)O)CC(=O)O [EDTA, ethylenediaminetetraacetic acid]
[1]; zinc ions removed by EDTA
  effect on METTL9 enzymatic activity towards SLC39A7_55-70 in presence of zinc: completely restored

## Nc1ncnc2c1ncn2[C@@H]1O[C@H](CSCC[C@H](N)C(=O)O)[C@@H](O)[C@H]1O [SAH, S-adenosylhomocysteine]
[2]
  Kd: 3.1 µM
[3]
  decrease in SAH binding relative to wild type: 2–10 fold

## C[S+](CC[C@H](N)C(=O)[O-])C[C@H]1O[C@@H](n2cnc3c(N)ncnc32)[C@H](O)[C@@H]1O (some centres unmarked) [SAM, S-adenosylmethionine]
[2]
  Kd: 1.6 µM

## [Cl-].[Cl-].[Zn+2] [ZnCl2]
[1]; 0.5 mM ZnCl2 added
  effect on histidine methylation of SLC39A7_55-70 by METTL9: substantially inhibited

## Ac-HTHESWIHG-NH2 [SLC39A7_66-74]
[2]
  Kd: 6.7 µM

## HTHESIWHG [SLC39A7_(66-74) peptide]
[4]
  fold reduction of binding against wild-type METTL9: 6 to 10 fold
[5]
  fold weakening of binding against wild-type METTL9: 4 to 6 fold
[6]
  binding result: binds
[7]
  binding result: binds
[8]
  binding result: binds
